This is an account of results in patent US20090029953A1, “18-METHYL-19-NOR-17-PREGN-4-ENE-21,17-CARBOLACTONES, AS WELL AS PHARMACEUTICAL PREPARATIONS THAT CONTAIN THE LATTER” (priority 2004, published 2009).

The test relates to ovariectomized pregnant rats. In words: pregnancy maintenance test in rats. Particulars: subcutaneous once daily from day 8 of pregnancy, with estrone 5 μg/kg/day. It is filed as in vivo. An excerpt:
Executing the Pregnancy Maintenance Test in Rats:
In pregnant rats, removal of the corpora lutea or castration induces abortion. By exogenous supplying of progestins (gestagens) in combination with a suitable dose of estrogen, pregnancy can be maintained. The pregnancy maintenance test in ovariectomized rats serves to determine peripheral gestagenic activity of a compound.
Rats are paired up during the proestrus overnight. Mating is monitored on the morning of the following day by vaginal smear inspection. The presence of sperm is considered in this case as day 1 of the beginning of pregnancy. On day 8 of pregnancy, the animals are ovariectomized under ether anesthesia. […]
At the end of the test (day 15 or day 21), the animals are sacrificed under CO2 atmosphere, and live fetuses (fetuses with beating hearts) and implantation sites (early resorptions and dead fetuses including autolysis and atrophic placentas) in both uterine horns are counted. […] In uteri without fetuses or implantation sites, the number of nidation sites is determined by staining with 10% ammonium sulfide solution. The pregnancy maintenance rate is calculated as the quotient of the number of living fetuses and the total number of nidation sites (both resorbed and dead fetuses as well as nidation sites). […]

Consider `CCC12CCC3C4CCC(=O)C=C4C4CC4C3C1C1CC1C21CCC(=O)O1` (stereo not drawn) [compound 3a, 18-Methyl-6α,7α-15β,16β-dimethylene-3-oxo-19-nor-17-pregn-4-ene-21,17-carbolactone], for which the “pregnancy-maintaining dose (ED50)” value was found to be 120 µg/kg/day.

In the case of `C[C@]12CCC(=O)C=C1[C@@H]1C[C@@H]1[C@H]1[C@@H]3[C@@H]4C[C@@H]4[C@@]4(CCC(=O)O4)[C@@]3(C)CC[C@@H]12` [drospirenone, 6β,7β-15β,16β-dimethylene-3-oxo-17-pregn-4-ene-21,17β-carbolactone], the “pregnancy-maintaining dose (ED50)” value came to 3500 µg/kg/day.
